Consider one molecule from patent US6908927B2, “Pyridopyranoazepine derivatives, their preparation and their therapeutic application” (Sanofi-Synthelabo, priority 1999, dated 2005).

Where a name gives a salt, the structure may show the parent alone.

With `CCC1c2ncccc2OC2CCN3CCC21C3` (racemic) (as salt: HBr), the melting point was 170 °C (dec.).

In general, melting point refers to the temperature of the solid-liquid transition.
